Laboratory results published in the supplement of paper PMC10307832.

Tests used:
Experiment in all cases: relative viability (nuclei count vs DMSO), 5 days (fraction); higher = more cells survive
[1] = compound: COc1cc(-c2nn([C@H]3CC[C@H](N4CCN(C(C)=O)CC4)CC3)c3ncnc(N)c23)ccc1NC(=O)c1cc2ccccc2n1C + CS(=O)(=O)CCNCc1ccc(-c2ccc3ncnc(Nc4ccc(OCc5cccc(F)c5)c(Cl)c4)c3c2)o1 [Lapatinib] (partner 2 µM)
Summary of the method: (§1)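 A single step with final 0.05% Triton X-100, 1% formaldehyde and 1 ug/ml Hoechst fixed the cells and stained nuclei 5 days after treatment. Lung cancer cell lines in 1536-well plates had been treated by pin tool the day after seeding with one drug alone or a fixed anchor-drug dose plus five library-drug doses (not always all listed) in √10 steps, and nuclei were counted on 4× images. Relative viability is the ratio of nuclei in treated wells to nuclei in vehicle wells, taken as the median of duplicate plates.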

[2] = compound: COc1cc(-c2nn([C@H]3CC[C@H](N4CCN(C(C)=O)CC4)CC3)c3ncnc(N)c23)ccc1NC(=O)c1cc2ccccc2n1C + CC(C)C[C@H](NC(=O)[C@H](Cc1ccccc1)NC(=O)c1cnccn1)B(O)O [Bortezomib] (partner 0.002 µM)
Summary of the method: as §1

[3] = compound: COc1cc(-c2nn([C@H]3CC[C@H](N4CCN(C(C)=O)CC4)CC3)c3ncnc(N)c23)ccc1NC(=O)c1cc2ccccc2n1C + CC(=O)c1c(C)c2cnc(Nc3ccc(N4CCNCC4)cn3)nc2n(C2CCCC2)c1=O [Palbociclib] (partner 0.5 µM)
Summary of the method: as §1

Midostaurin + OSI-027 = compound: CO[C@@H]1[C@H](N(C)C(=O)c2ccccc2)C[C@H]2O[C@]1(C)n1c3ccccc3c3c4c(c5c6ccccc6n2c5c31)C(=O)NC4 [Midostaurin] + COc1cccc2cc(-c3nc([C@H]4CC[C@H](C(=O)O)CC4)n4ncnc(N)c34)[nH]c12 [OSI-027] (partner 0.5 µM)
Summary of the method: as §1

[4] = compound: COc1cc(-c2nn([C@H]3CC[C@H](N4CCN(C(C)=O)CC4)CC3)c3ncnc(N)c23)ccc1NC(=O)c1cc2ccccc2n1C + NC(=O)Nc1cc(-c2cccc(F)c2)sc1C(=O)N[C@H]1CCCNC1 [AZD7762] (partner 0.2 µM)
Summary of the method: as §1

Row | Cell Line | relative viability ([1]; first compound 0.0128 µM) | relative viability ([1]; first compound 0.04048 µM) | relative viability ([1]; first compound 0.128 µM) | relative viability ([1]; first compound 1.28 µM) | relative viability ([2]; first compound 0.0128 µM) | relative viability ([2]; first compound 0.04048 µM) | relative viability ([2]; first compound 0.128 µM) | relative viability ([2]; first compound 1.28 µM) | relative viability ([3]; first compound 0.0128 µM) | relative viability ([3]; first compound 0.04048 µM) | relative viability ([3]; first compound 0.128 µM) | relative viability ([3]; first compound 1.28 µM) | relative viability (Midostaurin + OSI-027; first compound 0.01 µM) | relative viability (Midostaurin + OSI-027; first compound 0.03162 µM) | relative viability (Midostaurin + OSI-027; first compound 0.1 µM) | relative viability (Midostaurin + OSI-027; first compound 0.3162 µM) | relative viability ([4]; first compound 0.0128 µM) | relative viability ([4]; first compound 0.04048 µM) | relative viability ([4]; first compound 0.128 µM) | relative viability ([4]; first compound 1.28 µM)
1 | HCC-15 | 1.08 | 0.726 | 0.87 | 0.896 | 1.25 | 1 | 0.963 | 1.11 | 0.555 | 0.663 | 0.839 | 0.705 | 0.758 | 0.624 | 0.698 | 0.717 | 1.46 | 1.24 | 1.21 | 1.28
2 | A-427 | 1.18 | 0.944 | 0.852 | 0.907 | 1.04 | 0.782 | 0.935 | 0.96 | 0.544 | 0.554 | 0.551 | 0.521 | 0.449 | 0.467 | 0.434 | 0.512 | 0.76 | 0.641 | 0.782 | 0.727
3 | NCI-H1734 | 1.12 | 1.04 | 0.959 | 0.871 | 0.995 | 0.862 | 1.1 | 0.756 | 0.37 | 0.332 | 0.335 | 0.276 | 0.57 | 0.589 | 0.632 | 0.552 | 0.614 | 0.519 | 0.578 | 0.508
4 | PC-14 | 0.308 | 0.371 | 0.297 | 0.208 | 0.9 | 0.967 | 0.892 | 1.06 | 0.515 | 0.503 | 0.486 | 0.433 | 0.92 | 0.811 | 0.875 | 1.02 | 0.42 | 0.417 | 0.365 | 0.355
5 | NCI-H1915 | 1.08 | 1.03 | 0.992 | 1.01 | 1.05 | 1.03 | 0.931 | 0.929 | 0.578 | 0.441 | 0.495 | 0.44 | 0.623 | 0.555 | 0.568 | 0.597 | 0.714 | 0.665 | 0.69 | 0.448
6 | NCI-H1666 | 0.712 | 0.664 | 0.581 | 0.509 | 0.946 | 0.859 | 0.807 | 0.68 | 0.678 | 0.661 | 0.6 | 0.622 | 0.8 | 0.794 | 0.883 | 0.903 | 0.821 | 0.841 | 0.802 | 0.741
7 | HCC-366 | 1.09 | 0.998 | 1.07 | 0.66 | 0.951 | 0.859 | 1.09 | 0.849 | 0.485 | 0.431 | 0.403 | 0.256 | 0.961 | 0.954 | 0.567 | 0.811 | 0.252 | 0.221 | 0.246 | 0.193
